Measurements as given in publication PMC7904827 (Scientific Reports, 2021).
Counter-ions that a name gives are not always drawn.

Legend:
[1] = ICRF-193 release from the prodrugs during incubation in DMEM (thermomixer, UHPLC-MS/MS); format: in vitro ADME; settings: 100 µM, 37 °C
Procedure: All samples were spiked with the internal standards. DMEM or buffer (100 μL) was diluted with an ice-cold methanol/water mixture (20:80, v/v), mixed and analyzed. Plasma (50 μL) was precipitated with ice-cold methanol (1:5, v/v), mixed (20 s) and centrifuged (10 min, 10,000 rpm, 4 °C). NVCM pellets (4.8 × 10^6 cells) were precipitated with ice-cold methanol (250 μL), mixed (20 s), sonicated in a cold ultrasonic bath (75 s), mixed (30 s) and centrifuged (10 min, 10,000 rpm, 4 °C). The supernatants from the plasma and NVCM extractions were filtered (0.22 μm, PVDF) prior to analysis. For assay of the prodrugs, the samples were acidified with formic acid to a final concentration of 0.5%.
The samples were analyzed using two UHPLC instruments both coupled to a triple quadrupole mass spectrometer. […] Positive ionization mode was used in both methods. The analytical columns tested are characterized in the Supplementary materials.
The prodrugs (100 μM) were incubated (37 °C) in DMEM in a thermomixer (Thermomixer Comfort, Eppendorf, Germany) under gentle mixing (350 rpm) for 48 h.
From all of the above described experiments, samples were taken at predefined intervals, treated and immediately analyzed. All experiments were performed in four replicates, and the results are expressed as the mean ± SD.

[2] = Post-preparation stability of the extracted analytes in autosampler (8 °C); format: physicochemical
Procedure: Linearity was tested within the concentration range of 0.2 – 100 μM for all compounds in DMEM, the buffer and plasma and 10-100 pmol/106cells in NVCMs (method I). For […]
Unweighted and weighted (1/x and 1/x2) linear regression was applied to obtain the best fitting calibration model.
Accuracy and precision were calculated at 4 levels (LLOQ, low, medium and high concentrations). Five quality control (QC) samples were used for all concentration levels. […]
Stability of the analytes was examined at low and high concentrations. Process s tability (n=3) in plasma was tested for 20 min at either laboratory temperature (23 °C) or on ice (4 °C, only for GK-667). Post-preparation stability was examined for 8 to 10 h in an autosampler (8 °C, n=3) for all treated matrices. […]
plasma was tested at -80 °C and the freezing cycle was repeated twice (n=3). The buffer, DMEM, NVCMs and plasma samples containing GK -667 from in vitro studies and from first intervals of pharmacokinetic study (up to 20 min) w ere treated and analyzed immediately after […]

[3] = test system: neonatal ventricular cardiomyocytes (NVCMs); experiment: In vitro cardioprotection bioassay against daunorubicin toxicity (LDH release); format: cell-based, rat; settings: 3 h preincubation, DAU 1.2 µM, LDH release after 48 h
Procedure: NVCMs were isolated in-house from 1- to 3-day-old Wistar rats as described previously. The use of animals and experimental protocols were approved by Charles University, Faculty of Pharmacy Animal Welfare Committee. All experiments were performed in accordance with Directive 2010/63/EU on the Protection of Animals Used for Scientific Purposes and in compliance with Animal Research: Reporting of In Vivo Experiments (ARRIVE) guidelines. Newly isolated cardiomyocytes were left for 40 h to form a monolayer of spontaneously beating cardiomyocytes in seeding medium (DMEM/F12 supplemented with 10% HS, 5% FBS, 4% PYR and 1% P/S), which was then replaced with culture medium (DMEM/F12 supplemented with 5% FBS, 4% PYR and 1% P/S). The medium was replaced again after 24 h for new culture medium.
After 3 h, DAU solution (1.2 µM) was added to the media. After another 3 h, the medium was replaced with new (drug-free) exposure medium, and the cardiomyocytes were then kept until the end of the experiment. In addition to cytoprotective properties, the toxicity of the studied agent was also examined; this experiment was performed as described above with only the DAU addition step omitted.
Forty-five hours after the last medium exchange, a sample of medium was taken from each well to assess lactate dehydrogenase (LDH) activity[27]–[29]. For details, see the Supplementary material.
1.5 LDH activity evaluation
The control wells were treated with lysis buffer (0.1 M potassium phosphate, 1% Triton
X-100, 1 mM DTT, 2 mM EDTA; pH 7.8; 15 min; room temperature) to measure the total
cellular LDH level (sum of the activity in the control medium and the lysate). The activity of
LDH was assayed in Tris-HCl buffer (pH 8.9) containing 35 mM sodium lactate and 5 mM
NAD+. The rate of NAD+ reduction was monitored spectrophotometrically at 340 nm for 2 min.
The slope of the linear region and molar absorption coefficient e = 6.22*10 3 M/cm were used
to calculate the LDH activity, and the data were expressed as a percentage of total L DH activity. […]

[4] = Approximate solubility in distilled water at room temperature; format: physicochemical; settings: distilled water, room temperature
Procedure: The syntheses of the target prodrugs were performed according to a known three-step procedure with some modifications. Target prodrugs GK-667, GK-678 and GK-691 were obtained in 34%, 37% and 17% overall yields, respectively. […] The resulting solutions remained physically stable for at least two hours at room temperature.

C[C@H]([C@H](C)N1CC(=O)N(COC(=O)CN)C(=O)C1)N1CC(=O)N(COC(=O)CN)C(=O)C1 [GK-667, meso-2,3-bis(4-(2-aminoacetoxymethyl)-3,5-dioxopiperazin-1-yl)butane tetrahydrochloride]
conversion to the inactive metabolite ICRF-193met ([1]; AUC0–3 h and AUC0–48 h, compared with the other prodrugs): lowest conversion
AUC0–3 h of ICRF-193 concentrations ([1]; GK-667 compared with GK-678): no statistically significant differences
AUC0–48 h of ICRF-193 concentrations ([1]; GK-667 compared with GK-678): significantly higher
percentage of initial concentration in autosampler ([2]; extracted DMEM, 100 µM, 0 h): 100.1%
percentage of initial concentration in autosampler ([2]; extracted DMEM, 100 µM, 8 h): 92.2%
percentage of initial concentration in autosampler ([2]; extracted DMEM, 100 µM, 10 h): 90.2%
percentage of initial concentration in autosampler ([2]; extracted NVCMs, 100 pmol/106 cells, 0 h): 103.3%
percentage of initial concentration in autosampler ([2]; extracted NVCMs, 100 pmol/106 cells, 8 h): 105.2%
percentage of initial concentration in autosampler ([2]; extracted NVCMs, 100 pmol/106 cells, 10 h): 103.3%
percentage of initial concentration in autosampler ([2]; extracted buffer, 100 µM, 0 h): 99.5%
percentage of initial concentration in autosampler ([2]; extracted buffer, 100 µM, 8 h): 92.9%
percentage of initial concentration in autosampler ([2]; extracted buffer, 100 µM, 10 h): 92.8%
percentage of initial concentration in autosampler ([2]; extracted plasma, 100 µM, 0 h): 101.5%
percentage of initial concentration in autosampler ([2]; extracted plasma, 100 µM, 8 h): 102.1%
percentage of initial concentration in autosampler ([2]; extracted plasma, 100 µM, 10 h): 102.7%
lowest concentration with significant protection against DAU-induced toxicity [3]: matched the results of ICRF-193
solubility [4]: ~20 mg/mL
